Marks after values point to notes of the source that are not given here.
Legend:
[1] = system: HBV GT E; test: Transient-transfection antiviral study in HepG2 cells, GT E; assay type: cell-based; conditions: Hepatitis B virus, HepG2, 72 h, read-out: EC50 (mean), HBV GT E
Procedure: (§2) Cells were cotransfected with the HBV plasmids (100 ng/well) and a Gaussia expression plasmid (10 ng/well) (Thermo Scientific) using the Lipofectamine LTX Plus transfection reagent (Life Technologies). Transfection mixtures were removed after overnight incubation, and cells were treated with serially diluted NVR 3-778 at a final dimethyl sulfoxide (DMSO) concentration of 0.5%. After 3 days of incubation with the compound, the supernatants were collected and secreted Gaussia luciferase was measured using a Gaussia Flash luciferase assay kit (Thermo Scientific). […] Samples were diluted into lysis buffer (Affymetrix) containing 2.5 µg proteinase K (Affymetrix) at 50°C for 40 min. Intracellular encapsidated HBV DNA was denatured for 30 min at 25°C in 0.2 M NaOH (Sigma) and incubated with HBV DNA probes designed to hybridize to the minus-strand HBV DNA (Affymetrix). The denatured DNA was subsequently detected using a QuantiGene assay kit, according to the branched DNA (bDNA) assay recommended by the manufacturer (Affymetrix).

[2] = system: HBV GT H; test: Transient-transfection antiviral study in HepG2 cells, GT H; assay type: cell-based; conditions: Hepatitis B virus, HepG2, 72 h, read-out: EC50 (mean), HBV GT H
Procedure: as §2

[3] = system: HBV; test: Effect of human serum on antiviral activity in HepG2.2.15 cells; assay type: cell-based, hepatitis B virus (GT D); conditions: for EC50 / EC90: Hepatitis B virus, HepG2.2.15, 144 h, HepG2.2.15 cells, 6 days
Procedure: To determine the effect of human protein binding on NVR 3-778 antiviral activity, HepG2.2.15 cells were incubated with increasing concentrations of NVR 3-778 in the presence of 0% to 40% human serum.
In combination studies, cells were treated with compounds either alone or in combination after combining the compounds in a checkerboard format. In studies examining the effect of human serum, serially diluted NVR 3-778 was added into cell culture medium containing 0% to 40% human serum (BioreclamationIVT). Cells were incubated with the compounds for 3 days, after which the medium was removed, fresh medium containing the compounds was added to the cells, and the cells were incubated for another 3 days prior to harvesting of the supernatants or cells for antiviral assays. To quantify intracellular encapsidated rcDNA or encapsidated pgRNA, cells were first solubilized using lysis buffer containing 1% NP-40 and 10 mM CaCl2. The cytoplasmic fraction was then treated with S7 nuclease (6 units) to remove nonencapsidated nucleic acids, after which the S7 nuclease was inactivated by the addition of EDTA (0.5 M). […] The levels of HBV DNA were determined by a bDNA assay as described above (Affymetrix). Supernatants or cell lysates containing HBV RNA were treated with proteinase K (2.5 µg) at 50°C for 40 min, transferred to a capture plate containing HBV RNA probe sets, and hybridized overnight at 55°C. Captured HBV RNA was measured by the addition of a chemiluminescent substrate using a QuantiGene assay (Affymetrix). […] At day 6, the CellTiter-Glo reagent was added to the cells and viability was determined according to the manufacturer’s protocol (Promega). Luminescence signals were measured at 0.2 s using a Victor X4 multimode plate reader (PerkinElmer). […]
Figure S3. Effect of human serum on NVR 3-778 antiviral activities. HepG2.2.15 cells were incubated with increasing concentrations of NVR 3-778 for 6 days in the presence of 0% (●), 10% […]
HBV DNA concentrations were determined from supernatant and compared to untreated cells containing the corresponding concentration of human serum. Data points represent mean values from at least three independent antiviral studies, and standard deviations are shown as error bars.

[4] = Hepatocyte stability, mouse hepatocytes; assay type: in vitro ADME; conditions: 120 min incubation
Procedure: (§1) Following in vitro incubation for 120 min with human, mouse, or dog hepatocytes, >85% of the NVR 3-778 remained intact. […] The fewest number of metabolites was found following incubation with human hepatocytes, where 92% of the NVR 3-778 remained after a 120-min incubation.

[5] = Hepatocyte stability, dog hepatocytes; assay type: in vitro ADME; conditions: 120 min incubation
Procedure: as §1

[6] = system: HBV rtA181V variant; test: microbe, parasite or virus in culture; assay type: cell-based, hepatitis B virus; conditions: ratio of mean EC50 against variant over WT HBV, HepG2 cells
Source text: Plasmids containing HBV DNA with rtN236T, rtA181V, rtA181V/N236T, and rtL180M/M204V/N236T were generated using the GT B WT or rtL180M/M204V DNA-containing plasmids and site-directed mutagenesis (Agilent Technologies). A panel of nine different HBV core variants (cW102G, cW102R, cI105V, cI105L, cI105T, cT109S, cT109M, cT109I, and cY118F) was generated, also using the GT B WT DNA-containing plasmid and site-directed mutagenesis. The full-length genome from all plasmids was sequenced to confirm that only the intended nucleotide change(s) was present. Finally, HBV sequences from genotypes A (GenBank accession number AF305422), C (GenBank accession number AB033550), D (GenBank accession number V01460), E (GenBank accession number AB274971), F (GenBank accession number AB036912), G (GenBank accession number AF160501), and H (GenBank accession number AB375159) were gene synthesized as 1.1 times the genome length together with part of the CMV promoter at the 5′ end. The gene-synthesized piece was validated by sequencing and subcloned into the pCMV-HBV plasmid using the restriction sites SalI and NdeI (Genewiz, USA).
HepG2 cells were seeded in 96-well plates at a density of 20,000 cells/well and allowed to attach overnight at 37°C in 5% CO2. Cells were cotransfected with the HBV plasmids (100 ng/well) and a Gaussia expression plasmid (10 ng/well) (Thermo Scientific) using the Lipofectamine LTX Plus transfection reagent (Life Technologies). Transfection mixtures were removed after overnight incubation, and cells were treated with serially diluted NVR 3-778 at a final dimethyl sulfoxide (DMSO) concentration of 0.5%. After 3 days of incubation with the compound, the supernatants were collected and secreted Gaussia luciferase was measured using a Gaussia Flash luciferase assay kit (Thermo Scientific). Cells were lysed with 0.33% NP-40 (Thermo Scientific), and the cytoplasmic fractions were treated with 2 units of Turbo DNase (Invitrogen) and 10 units of S7 nuclease (Roche) in CutSmart buffer (New England Biolabs) containing 25 µM CaCl2 (G-Biosciences) at 37°C for 60 min, followed by inactivation of the enzymes at 75°C for 15 min. Samples were diluted into lysis buffer (Affymetrix) containing 2.5 µg proteinase K (Affymetrix) at 50°C for 40 min. Intracellular encapsidated HBV DNA was denatured for 30 min at 25°C in 0.2 M NaOH (Sigma) and incubated with HBV DNA probes designed to hybridize to the minus-strand HBV DNA (Affymetrix). The denatured DNA was subsequently detected using a QuantiGene assay kit, according to the branched DNA (bDNA) assay recommended by the manufacturer (Affymetrix).
To determine percent inhibition, the mean background signal from wells containing only culture medium was subtracted from the signal for all other samples, and percent inhibition at each compound concentration was calculated by normalization to the signals for HepG2.2.15 cells treated with 0.5% DMSO. […] Both CalcuSyn and MacSynergy II (Ann Arbor, MI) software were used to evaluate the effect of compound combinations ([27]). After data analysis at the 95% confidence level, values of synergy or antagonism of <25 µM^2% were defined as insignificant, those between 25 and 50 µM^2% were defined as minor, those between 50 and 100 µM^2% were defined as moderate, and those of >100 µM^2% were defined as strong.

[7] = 2% human serum as printed in the table (text: 20%) versus without human serum
[8] = 10% human serum versus without human serum
[9] = 0% human serum, supernatant HBV DNA
[10] = 2% human serum as printed in the table (text: 20%)
[11] = 10% human serum, supernatant HBV DNA
[12] = 40% human serum, supernatant HBV DNA

O=C(Nc1cc(F)c(F)c(F)c1)c1ccc(F)c(S(=O)(=O)N2CCC(O)CC2)c1 [NVR 3-778]
EC50 [1]: 0.58 µM
EC50 [2]: 0.58 µM
EC50 fold shift ([3]; 0% human serum (reference)): 1
EC90 fold shift ([3]; 0% human serum (reference)): 1.0
EC50 fold shift [3, 7]: 9.3
EC90 fold shift [3, 7]: 10.3
EC50 fold shift [3, 8]: 4.5
EC90 fold shift [3, 8]: 4.5
EC90 fold shift ([3]; 40% human serum versus without human serum): 15.2
EC50 [3, 9]: 0.4 ± 0.1 µM
EC90 [3, 9]: 1.5 ± 0.41 µM
EC50 [3, 10]: 3.7 ± 1 µM
EC90 [3, 10]: 15.9 ± 6.3 µM
EC50 [3, 11]: 1.8 ± 0.51 µM
EC90 [3, 11]: 6.9 ± 0.9 µM
EC50 [3, 12]: 6.3 ± 2 µM
EC90 [3, 12]: 23.5 ± 11.6 µM
NVR 3-778 remaining intact [4]: > 85%
NVR 3-778 remaining intact [5]: > 85%
EC50 fold change, rtA181V [6]: 0.82 ± 0.19^d fold

— paper PMC6325219, “Preclinical Characterization of NVR 3-778, a First-in-Class Capsid Assembly Modulator against Hepatitis B Virus” (Antimicrobial Agents and Chemotherapy, 2018)
